Literature values, collected in the CATMoS acute toxicity set (Mansouri et al. 2021).
Values joined by “and” are separate entries in the source; they are usually repeats but may differ in a detail not shown here. Equal entries are not always repeated.

Experiment: rat acute oral toxicity
Details: in vivo

| SMILES | LD50 |
| --- | --- |
| O=[N+]([O-])c1c(Cl)c(Cl)c(Cl)c2nc(C(F)(F)F)[nH]c12 | 19.3 mg/kg |
| O=[N+]([O-])c1cc(I)c(O)c(I)c1 | 170 mg/kg |
| N#Cc1ccccc1CN1CCc2sccc2C1 | 228 mg/kg |
| CN(N=O)C(=O)NC(N)=O | 450 mg/kg |
| O=c1[nH]c2cc(Cl)c(Cl)cc2o1 | 700 mg/kg |
| O=C1CCCCCCCC(=O)OCCO1 | 9200 mg/kg |
| CCOCCC(=O)O | 4800 mg/kg |
| CN(C)CCN(Cc1ccccc1)c1ccccc1 | 300 mg/kg |
| C[n+]1ccc(-c2ccccc2)cc1 | 35 mg/kg |
| CN(C)C(=O)OC1=CC(=O)CC(C)(C)C1 | 120 mg/kg |
| CC(C)COC(=O)CCc1ccco1 | 1950 mg/kg |
| CC/C=C\CC=O | 1560 mg/kg |
| CC(C)=C[C@@H]1[C@@H](C(=O)OCc2coc(Cc3ccccc3)c2)C1(C)C | 1240 mg/kg |
| C=CC(=O)OCCCOCC | 820 mg/kg |
| COc1cc(-c2ccc(N=Nc3c(O)ccc4ccccc34)c(OC)c2)ccc1N=Nc1ccc2c(S(=O)O)cc(S(=O)(=O)O)c(N)c2c1 | 6700 mg/kg |
| COC1OC(CNC(=O)N(CCCl)N=O)C(O)C(O)C1O (stereo not drawn) | 46.4 mg/kg |
| O=C(O)Cc1ccc2c(c1)C(=O)c1ccccc1CO2 | 143 mg/kg |
| Nc1cc([N+](=O)[O-])ccc1O | 2400 mg/kg |
| C=CCN1CC[C@]23CCCC[C@H]2[C@H]1Cc1ccc(O)cc13 | 949 mg/kg |
| CC(CCN(C)C)N(C)C (stereo not drawn) | 750 mg/kg |
| OCCN(CCO)c1nc(N2CCCCC2)c2nc(N(CCO)CCO)nc(N3CCCCC3)c2n1 | 8400 mg/kg |
| CC(=O)N(/C(=N/c1cccnc1)NC#N)C(C)(C)C | 615 mg/kg |
| C=CCSP(=O)(NC(=O)CC)OC (stereo not drawn) | 125 mg/kg |
| CN(C)C(CSS(=O)(=O)c1ccccc1)CSS(=O)(=O)c1ccccc1 | 1100 mg/kg |

| SMILES | LD50 |
| --- | --- |
| O=C(O)C(F)(F)C(F)(F)C(F)(F)C(F)(F)C(F)(F)C(F)(F)C(F)(F)C(F)(F)C(F)(F)F | 57 mg/kg |
| CCOC(=O)C1(c2ccccc2)CCCN(C)CC1 (stereo not drawn) | 580 mg/kg and 355 mg/kg |
| COc1ccc(C(=O)CCC(=O)O)c2cc(C)oc12 | 2160 mg/kg |
| O=C(Cl)c1ccc(C(=O)Cl)cc1 | 2500 mg/kg |
| CC(C)(C)NC[C@H](O)COc1cccc2c1CCCC2=O | 700 mg/kg |
| CC=C(C)C(=O)N1CCCc2cc(C)ccc21 | 2200 mg/kg |
| CS(=O)(=O)OC[C@@H]1O[C@H]1[C@@H]1O[C@H]1COS(C)(=O)=O | 225 mg/kg |
| N#CN=c1ccccn1Cc1ccc(Cl)cc1 | 500 mg/kg |
| O=c1ccc2cc3ccoc3c(O)c2o1 | 480 mg/kg |
| Cc1ccc(N)cc1O | 3600 mg/kg |
| CCC(CO)NC(=O)C1C=C2c3cccc4c3c(cn4C)CC2N(C)C1 (stereo not drawn) | 200 mg/kg |
| O=S(=O)(O)c1ccccc1O | 1900 mg/kg |
| CN1CC[C@@]2(C)c3cc(OC(=O)NCCCCCCCCCCN4CCCCC4)ccc3N(C)[C@@H]12 | 15.3 mg/kg |
| C1CSCCS1 | 2770 mg/kg |
| CN(C)CCCN1C(=O)c2cc([N+](=O)[O-])ccc2Oc2ccccc21 | 1690 mg/kg |
| CN(C)CCOC1=Cc2ccccc2Sc2ccc(Cl)cc21 | 306 mg/kg |
| CC(F)(F)C(F)(F)C(F)(F)C(O)(F)F | 1110 mg/kg |
| C=CC(O)CCCCC (stereo not drawn) | 340 mg/kg |
| ClCCO[SiH](OCCCl)OCCCl | 190 mg/kg |
| FC(F)(F)c1nc2c(Cl)c(Cl)c(Cl)cc2[nH]1 | 1.52 mg/kg |
| CN(C)CCCC1c2ccccc2Nc2ccc(Cl)cc21 (stereo not drawn) | 379 mg/kg |
| C1=CC=CCC=C1 | 57 mg/kg |
| C#CCSP(=O)(OCC)OCC | 18 mg/kg |
| COc1ccc2c(c1)c(CC(=O)OC(C)c1ccccc1)c(C)n2C(=O)c1ccc(Cl)cc1 (stereo not drawn) | 425 mg/kg |

| SMILES | LD50 |
| --- | --- |
| CCc1cc(CC)cc(OC(=O)NC)c1 | 1600 mg/kg |
| CCC12CCC3c4ccc(O)cc4CCC3C1CC(O)C2O (stereo not drawn) | 5010 mg/kg |
| CCCCN(CCCC)CCOc1ccnc(N)n1 | 1000 mg/kg |
| Cc1ccccc1C(C)C | 2130 mg/kg |
| CNC(=O)ON=C(CSC)C(C)(C)C | 8.5 mg/kg |
| C[C@H]1[C@H](c2ccccc2)OCCN1C | 455 mg/kg |
| COc1cc2[nH]c3c(c2cc1OC)CCN1CC2C(C)OC=C(C(=O)OCCN(C)C)C2CC31 (stereo not drawn) | 2350 mg/kg |
| CC1(C)CO1 | 3890 mg/kg |
| CCOP(=O)(OCC)Oc1ccc([N+](=O)[O-])c(Cl)c1 | 5 mg/kg |
| CNc1nc(Cl)c(SC)c(N2CCN(C)CC2)n1 | 800 mg/kg |
| CC(CCO)CCO | 7780 mg/kg |
| CCOC(C1=NCC(C)(C)CN1)c1ccccc1Cl (stereo not drawn) | 310 mg/kg |
| NC(=S)NNCNNC(N)=S | 6.35 mg/kg |
| COc1cc(C[C@H]2c3cc(OC)c(OC)cc3CCN2C)c(Oc2cc3c(cc2OC)-c2c(OC)c(OC)cc4c2[C@H](C3)N(C)CC4)cc1OC | 1500 mg/kg |
| COP(=S)(OC)SC(CC(=O)OC(C)C)C(=O)OC(C)C (stereo not drawn) | 4000 mg/kg |
| CN(SSC(C)(C)C)C(=O)ON=C1SCCS1 | 5.6 mg/kg |
| CCCCOC(C)COC(=O)COc1cc(Cl)c(Cl)cc1Cl (stereo not drawn) | 500 mg/kg |
| Cc1cc(C)c(C2C(=O)c3ccccc3C2=O)c(C)c1 | 1000 mg/kg |
| O=[N+]([O-])c1cc2nc(C(F)(F)F)[nH]c2cc1Cl | 5.55 mg/kg |
| C1CN1P1(N2CC2)=NP(N2CC2)(N2CC2)=NP(N2CC2)(N2CC2)=N1 | 98 mg/kg |
| O=S(=O)(O)C(F)(F)C(F)(F)C(F)(F)C(F)(F)F | 430 mg/kg |
| CC(C)c1ccc2oc3nc(N)c(C(=O)O)cc3c(=O)c2c1 | 10000 mg/kg |
| COP(=O)(OC)SCn1c(=O)oc2cc(Cl)cnc21 | 1180 mg/kg |
| O=C1N(Cc2ccccc2)C2C[S+]3CCCC3C2N1Cc1ccccc1 (stereo not drawn) | 2490 mg/kg |

| SMILES | LD50 |
| --- | --- |
| CS(=O)(=O)c1ccc(O)cc1 | 3160 mg/kg |
| COc1ccc(C2Sc3ccccc3N(CCN(C)C)C(=O)C2OC(C)=O)cc1 (stereo not drawn) | 560 mg/kg |
| CCOC(=O)C1OC1(C)c1ccccc1 (stereo not drawn) | 5470 mg/kg |
| CN(C)P(=O)(OC=C(Cl)Cl)c1ccc(Cl)cc1 (stereo not drawn) | 500 mg/kg |
| CC(C)(C)c1ccc2nc(C(F)(F)F)[nH]c2c1 | 35 mg/kg |
| Cc1c(C(=O)N(C)C)nnn1-c1ccccc1 | 500 mg/kg |
| Cc1ccc(C(=O)c2ccccc2)c(C(=O)O)c1 | 5600 mg/kg |
| Cc1ccc(-c2nc3n(c2C=NNC(=O)CN(C)C)CCS3)cc1 | 800 mg/kg |
| Cc1ccc(N)c(S(=O)(=O)O)c1 | 11700 mg/kg |
| O=C(OCCOC(=O)c1ccccc1)c1ccccc1 | 5340 mg/kg |
| C[N+]1(CC[N+]2(C)CC3C4C=CC(CC4)C3C2)CCCC1 (stereo not drawn) | 1810 mg/kg |
| CCCCOP(=O)(OCCO)OCCCC | 915 mg/kg |
| CC(=O)OCCOCCOCCOC(C)=O | 15600 mg/kg |
| CCC1(c2ccccc2)NC(=O)N(C)C1=O (stereo not drawn) | 850 mg/kg |
| c1ccc([B-](c2ccccc2)(c2ccccc2)c2ccccc2)cc1 | 288 mg/kg |
| OCCN(CCO)c1ccccc1 | 980 mg/kg |
| C=CC(=O)OCCOC(=O)C=C | 300 mg/kg |
| CC(C)N(C)C | 684 mg/kg |
| Cc1ccc(C(C)C)cc1O | 810 mg/kg |
| CCCCC(=O)OC1CCC(N2CCCCC2)CC1 (stereo not drawn) | 1510 mg/kg |
| CC1CCCC2N(C)C=C(C(N)=O)C(=O)N12 (stereo not drawn) | 370 mg/kg |
| O=c1[nH]c2c(Cl)c(Cl)c(Cl)cc2o1 | 1000 mg/kg |
| N#Cc1c(Cl)cccc1Cl | 2710 mg/kg |
| CC(O)(c1ccc(Cl)cc1)c1ccc(Cl)cc1 | 500 mg/kg |

| SMILES | LD50 |
| --- | --- |
| O=c1[nH]c2ccccc2n1CCCN1CCC(n2c(=O)[nH]c3cc(Cl)ccc32)CC1 | 5240 mg/kg |
| CC1CC(C)(C)CC(OOC(C)(C)C)(OOC(C)(C)C)C1 (stereo not drawn) | 12900 mg/kg |
| CCOP(=O)(OCC)ON=C(C1CC1)C1CC1 | 7.85 mg/kg |
| CN1CCN(CC(=O)NN=Cc2ccc([N+](=O)[O-])o2)CC1 | 1350 mg/kg |
| Cc1cccc(C(=O)c2ccccc2)c1C | 4920 mg/kg |
| Nc1ccc2[nH]c3ccccc3c2c1 | 1520 mg/kg |
| CCN(C)CCC(CC=C(C)C)(C(N)=O)c1cccc2ccccc12 (stereo not drawn) | 71 mg/kg |
| CCC1(CC)C(=O)C=CNC1=O | 780 mg/kg |
| C=CCOCC(CC)(CO)COCC=C | 6500 mg/kg |
| O=[PH](O)c1ccccc1 | 1340 mg/kg |
| CCOC(=O)CCCCCCCCC(C)c1ccc(I)cc1 (stereo not drawn) | 2100 mg/kg |
| CCCCC[C@H](O)/C=C/[C@H]1[C@H](O)CC(=O)[C@@H]1C/C=C\CCCC(=O)O | 500 mg/kg |
| COC(C)N(C)N=O (stereo not drawn) | 240 mg/kg |
| O=c1cc[nH]c(=O)o1 | 850 mg/kg |
| Cn1c2c(c(=O)n1-c1ccccc1)CCCC2 | 1500 mg/kg |
| CC(C)OP(=S)(CCl)Sc1ccc(F)cc1 (stereo not drawn) | 39 mg/kg |
| CN(C)CCOc1ccnc(N)n1 | 1500 mg/kg |
| COc1cc(Cc2cnc(N)nc2N)cc(OC)c1Br | 2510 mg/kg |
| C=CCn1c(N)cc(=O)n(CC)c1=O | 2300 mg/kg |
| CC1CN(C2CCCCCCCCCCC2)CC(C)O1 (stereo not drawn) | 2640 mg/kg and 2500 mg/kg |
| CC(N)C(OCCN(C(C)C)C(C)C)C(=O)c1ccccc1 (stereo not drawn) | 238 mg/kg |
| C=COC(=O)c1ccccc1 | 3250 mg/kg |
| C[C@H](CCC(=O)O)[C@H]1CC[C@H]2[C@@H]3[C@@H](O)C[C@@H]4C[C@H](O)CC[C@]4(C)[C@H]3CC[C@]12C | 4600 mg/kg |
| N#CC(Cl)(Cl)Cl | 250 mg/kg |

| SMILES | LD50 |
| --- | --- |
| CC(NCCO)c1ccccc1 (stereo not drawn) | 2830 mg/kg |
| NCCOCNc1ccccc1 | 0.625 mg/kg |
| Nc1ccc(Oc2ccc(C(c3ccc(Oc4ccc(N)cc4)cc3)(C(F)(F)F)C(F)(F)F)cc2)cc1 | 1340 mg/kg |
| CCCCCCCCCCCCC(Br)C(=O)O (stereo not drawn) | 800 mg/kg |
| C=C[C@]1(C)C[C@@H](OC(=O)CSCCN(CC)CC)[C@]2(C)[C@H](C)CC[C@]3(CCC(=O)[C@H]32)[C@@H](C)[C@@H]1O | 2230 mg/kg |
| COP(=S)(OC)SCc1ccc(SP(=S)(OC)OC)cc1 | 265 mg/kg |
| Cc1cccc(Nc2ccccc2C(=O)O)c1C | 740 mg/kg |
| Cc1cccc(NC(=O)c2ccccc2C(=O)O)c1 | 5230 mg/kg |
| C[Si](Cl)(Cl)CCCC#N | 650 mg/kg |
| CCOC(=O)C1=CN(C(C)=O)C2CCCC(C)N2C1=O (stereo not drawn) | 2500 mg/kg |
| CCCCCCCCCCCCCN1CC(C)OC(C)C1 (stereo not drawn) | 650 mg/kg |
| CCn1cc(C(=O)O)c(=O)c2cc(F)c(N3CCN(C)CC3)cc21 | 2500 mg/kg |
| C=CCC | 4000 mg/kg |
| Cc1cccc2sc3nncn3c12 | 250 mg/kg |
| C[C@H]1O[C@@H](n2cc(F)c(=O)[nH]c2=O)[C@H](O)[C@@H]1O | 3390 mg/kg |
| Cc1ccc(N=c2sccn2C)c(C)c1 | 725 mg/kg |
| Cc1ccccc1OCC(O)CN1CC=CCC1 (stereo not drawn) | 340 mg/kg |
| OCCS | 244 mg/kg |
| NC(Cc1ccc(N(CCCl)CCCl)cc1)C(=O)O (stereo not drawn) | 52 mg/kg and 105 mg/kg |
| Cc1cc(C)cc(O)c1 | 608 mg/kg |
| O=C(Cn1c(=O)sc2ccc(Cl)cc21)N1CCNCC1 | 734 mg/kg |
| C[N+]1(C)CCCCC1COC(=O)C(O)(c1ccccc1)c1ccccc1 (stereo not drawn) | 5080 mg/kg |
| CCCn1c(=O)c2[nH]c(C)nc2n(CC(C)C)c1=O | 19 mg/kg |
